Data as given in patent US11426473B2, “Nitrogen-containing compound or salt thereof, or metal complex thereof” (FUJIFILM Corporation, priority 2013, dated 2022).

Key:
[1] = system: SK-MEL-28 (human melanoma) subcutaneous tumor; experiment: Tumor accumulation of [111In]-(A8), tissue extraction and radioactivity measurement, SK-MEL-28; format: in vivo, mouse; conditions: 740 kBq tail vein
Protocol: (§1) SK-MEL-28 (human melanoma), A375 (human melanoma), A498 (human renal cell cancer), Caki-2 (human renal cell cancer), HCT116, U87MG, and T98G cells were studied as follows: the cells of each line were cultured and subcutaneously transplanted at 1×10^7 cells/mouse to the right flank of Balb/cAJcl-nu/nu (CLEA Japan, Inc., male, 6 to 8 weeks old). The mice were raised until their tumor volumes reached 85 to 1,075 mm^3. Then, the mice were allocated at the time of anatomy to groups each involving 3 individuals so as to prevent the tumor volumes from disproportioning among the groups. Then, the radiolabeled compound [^111In]-(A8) (740 kBq) was administered to the tail veins of the mice. The animals were sacrificed at the time of anatomy to extract their tumors. The weights of the tumors were measured, and then, the radioactivity was measured using a gamma counter to calculate the concentration of radioactivity in the tumors (% ID/g: % injected dose/g).

[2] = system: A375 (human melanoma) subcutaneous tumor; experiment: Tumor accumulation of [111In]-(A8), tissue extraction and radioactivity measurement, A375; format: in vivo, mouse; conditions: 740 kBq tail vein
Protocol: as §1

[3] = system: A498 (human renal cell cancer) subcutaneous tumor; experiment: Tumor accumulation of [111In]-(A8), tissue extraction and radioactivity measurement, A498; format: in vivo, mouse; conditions: 740 kBq tail vein
Protocol: as §1

[4] = system: T98G (human glioblastoma) subcutaneous tumor; experiment: Tumor accumulation of [111In]-(A8), tissue extraction and radioactivity measurement, T98G; format: in vivo, mouse; conditions: 740 kBq tail vein
Protocol: as §1

[5] = system: U87MG (human glioblastoma) subcutaneous tumor; experiment: Tumor accumulation of [111In]-(A8), tissue extraction and radioactivity measurement, U87MG; format: in vivo, mouse; conditions: 740 kBq tail vein
Protocol: as §1

[6] = system: Caki-2 (human renal cell cancer) subcutaneous tumor; experiment: Tumor accumulation of [111In]-(A8), tissue extraction and radioactivity measurement, Caki-2; format: in vivo, mouse; conditions: 740 kBq tail vein
Protocol: as §1

[7] = system: U87MG cells subcutaneous tumor; experiment: Concentration of radioactivity in tumor of labeled compounds (Test Example 4); format: in vivo, mouse; conditions: tail vein, 111In 740 kBq, 64Cu and 90Y 500 kBq
Protocol: U87MG cells were subcutaneously transplanted at 1×10^7 cells/mouse to the right flank of Balb/cAJcl-nu/nu (CLEA Japan, Inc. or Japan SLC, Inc., 6 to 9 weeks old). After 2 to 3 weeks, the mice were divided into groups each involving 3 individuals per point in time when their tumors became 200 to 500 mm^3. The ^111In-labeled compound (740 kBq) was administered to the tail veins of the mice.
After a given time, the animals were sacrificed to extract their tumors. The weights of the tumors were measured, and the radioactivity was measured using a gamma counter to calculate the concentration of radioactivity in the tumors (% ID/g). In the same way as above, the concentration of radioactivity in the tumors (% ID/g) was calculated for the ^64Cu-labeled compound (500 kBq) and the ^90Y-labeled compound (500 kBq).

[8] = system: HCT116 (human colorectal cancer) subcutaneous tumor; experiment: Tumor accumulation of [111In]-(A8), tissue extraction and radioactivity measurement, HCT116; format: in vivo, mouse; conditions: 740 kBq tail vein
Protocol: as §1

[9] = system: U87MG cells subcutaneous tumor; experiment: Imaging of integrin-expressing tumor by PET; format: in vivo; conditions: at the time of anatomy (48 hours after administration), 4.8 MBq/mouse tail vein
Protocol: U87MG cells were subcutaneously transplanted at 1×10^7 cells/mouse to the right flank of Balb/cAJcl-nu/nu (CLEA Japan, Inc. or Japan SLC, Inc., male, 6 to 9 weeks old). After 2 weeks, the radiolabeled compound [^64Cu]-(P2) was administered at 4.8 MBq/mouse to the tail veins of mice whose tumors became 250 to 650 mm^3. After 1, 4, 24, and 48 hours, the images were taken in microPET/CT (Inveon, Siemens AG) under isoflurane anesthesia. After the imaging at 48 hours after administration, the mice were euthanized by the collection of the whole blood from the postcava under deep anesthesia with isoflurane, followed by tumor extraction. The weights of the tumors were measured, and the radioactivity was measured using a gamma counter to calculate the concentration of radioactivity in the tumors (% ID/g). In the same way as above, [^64Cu]-(Aa7), [^64Cu]-(Ab9-a), and [^64Cu]-(Ab9-b) were imaged. However, the concentration of radioactivity in the tumors was not calculated. The tumor accumulation was confirmed for all of the compounds 1 hour after administration, and the tumors were visualized up to 48 hours later. […] The concentration of radioactivity in the tumors was 5.6% ID/g at the time of anatomy (48 hours after administration).

[10] = Radiochemical purity after standing at room temperature; format: physicochemical; conditions: immediately after preparation and after standing at room temperature for 22 hours
Protocol: To a mixed solution of compound (P2) (8.5 μg) and a 0.2 mol/L sodium acetate buffer solution (pH 4.0) (1.5 mL), a [^111In] indium chloride solution (80 MBq, 100 μL) was added. The mixture was heated at 100° C. for 15 minutes and then left at room temperature for 5 minutes to obtain radiolabeled compound [^111In]-(P2). […] Its radiochemical purity was 95% or more both immediately after preparation and after standing at room temperature for 24 hours.
To a mixed solution of compound (P2) (79 μg), gentisic acid (1.8 mg), a 0.6 mol/L sodium acetate buffer solution (pH 4.0, 120 μL), and a 0.4 mol/L aqueous sodium hydroxide solution (24 μL), a [^90Y] yttrium chloride solution (700 MBq, 240 μL) was added. The mixture was heated at 100° C. for 20 minutes and then left at room temperature for 5 minutes to obtain radiolabeled compound [^90Y]-(P2). […] Its radiochemical purity was 95% or more both immediately after preparation and after standing at room temperature for 24 hours.
To a mixed solution of compound (P2) ([…]) and a 0.2 mol/L sodium acetate buffer solution (pH 4.0, 219 μL), a [^64Cu] copper chloride solution (pH 5, 35 MBq, 55 μL) was added. The mixture was heated at 100° C. for 15 minutes and then left at room temperature for 5 minutes to obtain radiolabeled compound [^64Cu]-(P2). […] Its radiochemical purity was 90% or more both immediately after preparation and after standing at room temperature for 22 hours.
To a mixed solution of compound (Aa7) (4.2 μg), gentisic acid (1 mg), and a 0.2 mol/L sodium acetate buffer solution (pH 4.0) (5.0 μL), [^64Cu] copper chloride in a 0.2 mol/L sodium acetate buffer solution (pH 4.0) (40 MBq, 155 μL) was added. The mixture was heated at 100° C. for 15 minutes and then left at room temperature for 5 minutes to obtain radiolabeled compound [^64Cu]-(Aa7). […] Its radiochemical purity was 90% or more both immediately after preparation and after standing at room temperature for 24 hours.

[11] = Absorbed doses in each organ in humans calculated with OLINDA/EXM 1.0 from monkey organ distribution; format: in vivo; conditions: calculated with OLINDA/EXM 1.0 from monkey imaging with [111In]-(P2)
Protocol: Blood kinetic parameters were calculated with OLINDA/EXM 1.0 from the blood concentration of radioactivity by blood collection over time from a cynomolgus monkey using [^111In]-(P2). Also, absorbed doses in each organ in the case of administration to humans were calculated with OLINDA/EXM 1.0 from organ distribution by imaging using [^111In]-(P2). The radiolabeled compound [^111In]-(P2) (98 MBq/[…]) was administered to a cynomolgus monkey (Hamri Co., Ltd., male, 3 years old, 3.4 kg) under anesthesia. After the administration, blood collection and imaging with a gamma camera were performed over time. The blood collection was carried out 10 minutes, 30 minutes, 60 minutes, 2 hours, 4 hours, 5 hours, 6 hours, 24 hours, 48 hours, 72 hours, and 144 hours after administration. The imaging was carried out 1, 2, 4, 6, 24, 48, 72, and 144 hours after administration with a gamma camera (Symbia, Siemens AG) to take planar images. The anesthesia was carried out using 20 mg/kg ketamine before administration of [^111In]-(P2) and maintained by inhalation anesthesia (2 to 3% isoflurane, 5 to 8 L/min) until the completion of the imaging at 6 hours after administration. At or after 24 hours after administration, blood collection and imaging were performed by the introduction of 20 mg/kg ketamine and 2 mg/kg xylazine. […] The blood kinetic parameters are shown below.

Cc1cc(OCCCC(=O)NCCNC(=O)C(CS(=O)(=O)O)NC(=O)C(CS(=O)(=O)O)NC(=O)CN2CCN(CC(=O)[O-])CCN(CC(=O)[O-])CCN(CC(=O)[O-])CC2)cc(C)c1S(=O)(=O)NC(CNC(=O)c1ccc(CCc2ccc3c(n2)NCCC3)cc1)C(=O)O.[111In+3] (stereo not drawn) [[^111In]-(A8)]
Concentration of radioactivity in tumor ([1]; sk-mel-28, 4 hours later): 2.9 % ID/g
Concentration of radioactivity in tumor ([1]; sk-mel-28, 24 hours later): 4.9 % ID/g
Concentration of radioactivity in tumor ([2]; A375, 4 hours later): 3.7 % ID/g
Concentration of radioactivity in tumor ([2]; A375, 24 hours later): 3.8 % ID/g
Concentration of radioactivity in tumor ([3]; A498, 4 hours later): 13.1 % ID/g
Concentration of radioactivity in tumor ([3]; A498, 24 hours later): 7.9 % ID/g
Concentration of radioactivity in tumor ([4]; 4 hours later): 6.5 % ID/g
Concentration of radioactivity in tumor ([4]; 24 hours later): 6.7 % ID/g
Concentration of radioactivity in tumor ([5]; 4 hours later): 12.0 % ID/g
Concentration of radioactivity in tumor ([5]; 24 hours later): 9.3 % ID/g
Concentration of radioactivity in tumor ([6]; caki-2, 4 hours later): 6.4 % ID/g
Concentration of radioactivity in tumor ([6]; caki-2, 24 hours later): 8.5 % ID/g
Concentration of radioactivity in tumor ([7]; 4 hours later): 9.48 % ID/g
Concentration of radioactivity in tumor ([7]; 24 hours later): 12.90 % ID/g
Concentration of radioactivity in tumor ([8]; HCT116, 4 hours later): 3.1 % ID/g
Concentration of radioactivity in tumor ([8]; HCT116, 24 hours later): 2.9 % ID/g

Cc1cc(OCCCC(=O)NCCNC(=O)[C@H](CS(=O)(=O)O)NC(=O)CN2CCN(CC(=O)[O-])CCN(CC(=O)[O-])CCN(CC(=O)O)CC2)cc(C)c1S(=O)(=O)N[C@@H](CNC(=O)CCCCc1ccc2c(n1)NCCC2)C(=O)O.[64Cu+2] [[^64Cu]-(P2)]
concentration of radioactivity in the tumors [9]: 5.6 % ID/g
radiochemical purity after standing [10]: ≥ 90%
Concentration of radioactivity in tumor ([7]; 4 hours later): 9.25 % ID/g
Concentration of radioactivity in tumor ([7]; 24 hours later): 8.48 % ID/g
Absorbed dose, Brain [11]: 0.11 mGy/MBq
Absorbed dose, Kidney [11]: 0.69 mGy/MBq
Absorbed dose, Liver [11]: 0.09 mGy/MBq
Absorbed dose, Lung [11]: 0.08 mGy/MBq
Absorbed dose, Red bone marrow [11]: 0.01 mGy/MBq
Absorbed dose, Small intestine [11]: 0.06 mGy/MBq
Absorbed dose, Whole body [11]: 0.02 mGy/MBq
